Measurements taken from patent US10449137B2, “Antimicrobial composition” (Conopco, Inc., priority 2015, dated 2019).

Test system: E. coli ATCC 10536
Experiment: In-vitro micro-dilution assay for determination of antimicrobial activity
Assay type: cell-based
Settings: for Average Residual Log (CFU/mL): E. coli ATCC 10536, 10^6 cells/mL in 10 mM sodium phosphate buffer, contact time 4 hours, about 37° C., plated on MacConkey agar; for antimicrobial action (in words): low concentration, E. coli ATCC 10536, 4 hours contact
Description: In-vitro Micro-dilution Assay for Determination of Antimicrobial Activity of Different Compositions:
The organism used for the assay was E. coli ATCC 10536
The procedure that was followed is given below: • a) First, the bacterial suspension corresponding to 10^6 cells/mL was prepared in 10 mM Sodium phosphate buffer. For this purpose the sodium phosphate buffer was prepared as follows: • To prepare the sodium phosphate buffer two different solutions were made. The first solution was prepared by dissolving 27.6 g of NaH2PO4.H20 (MW=138) in 500 mL of MilliQ water and made up the volume to 1 L with MilliQ water. This was then autoclaved and stored at room temperature. The molarity of the resultant solution was 0.2. • Then, the second solution was prepared by dissolving 53.62 g of […] (MW=268.1) in 500 mL of MilliQ water and made up the volume to 1 L with MilliQ water. This was then autoclaved and stored at room temperature. The molarity of the resultant solution was 0.2. • 19 mL of the first solution and 81 mL of the second solution was added together followed by the addition of 100 mL of MilliQ water to obtain a 200 mL solution of sodium phosphate buffer of molarity 0.1 with pH 7.4. • The required level of molarity that was need for the experiments were obtained by diluting the above solution. • b) Then 135 μL/well of the above bacterial suspension was taken and plated in a 96 well microtiter plate. • c) After that 15 μL of 100 mM sodium phosphate buffer was added in all well for all the samples. • d) Then the required test compositions were added in the well for the test. • e) The reaction volume for all the test samples was 300 μL. This reaction volume was adjusted by adding water. • f) The following samples were tested: • Example A: Only Culture • Example B: 1% niacinamide • Example C: 0.01% thymol • Example D: 0.01% terpineol • Example E: 0.01% thymol+0.01% terpineol • Example F: 0.01% Farnesol • Example G: 0.02% Farnesol • Example H: 1% niacinamide+0.01% Farnesol • Example I: 1% niacinamide+0.02% Farnesol • Example 1: 1% niacinamide+0.01% thymol+0.01% terpineol • Example 2: 1% niacinamide+1 μg/mL of LL-37+0.01% thymol+0.01% terpineol • For the above purpose, Thymol was procured from Nishant Aromas, India (Purity: 99%), Terpineol was also procured from Nishant Aromas, India (Purity: 99%), LL-37 (AMP) was procured from Sigma (Cat no: 94261),Niacinamide was procured from Veer Chemicals (Purity: 99%) and Farnesol was procured from Sigma-Aldrich (Cat. No: F203). • g) The contact time for the above test (for all the samples) was 4 hours and the temperature was maintained at about 37° C. • h) After the above contact time, the culture was serially diluted and plated on MacConkey Agar Medium (from Difco) and left it for 24 hours. After that, the residual colonies were counted to determine the bacterial kill/Residual Log.

terpineol [Example D]
Average Residual Log (CFU/mL): 6.45 Log (CFU/mL)
antimicrobial action (in words): not effective

Cc1ccc(C(C)C)c(O)c1 [Example C, thymol]
Average Residual Log (CFU/mL): 6.35 Log (CFU/mL)
antimicrobial action (in words): not effective

CC(C)=CCCC(C)=CCCC(C)=CCO [Example G, Farnesol]
Average Residual Log (CFU/mL): 6.35 Log (CFU/mL)

CC(C)=CCCC(C)=CCCC(C)=CCO [Example F, Farnesol]
Average Residual Log (CFU/mL): 6.40 Log (CFU/mL)

NC(=O)c1cccnc1 [Example B, niacinamide]
Average Residual Log (CFU/mL): 6.42 Log (CFU/mL)
